Data as given in patent US4859611A (priority 1986, dated 1989).

Experiments:
[1] = test system: IgM antibody affinity matrix; format: binding, mouse
many animal species = conditions: in vivo; cited from earlier work

## COc1cc2c(c3oc(=O)c4c(c13)CCC4=O)[C@@H]1C=CO[C@@H]1O2 [AFB1, aflatoxin B1]
[1]
  capacity of affinity matrix to bind AFB1: 1.0 to 1.3 µg
Many animal species
  toxic, mutagenic and carcinogenic effect: toxic, mutagenic and carcinogenic
